Assay results reported in patent US20090023700A1, “NEUROPROTECTIVE TREATMENTS” (University of Louisville Research Foundation, priority 2007, published 2009).
“And” between values parts separate entries of the source, which are not always exact repeats. Equal values may be shown once.

Legend:
RECA1 = RECA1 immunostaining (dorsal column blood vessels at epicenter) after T9 contusion; type: in vivo, rat; conditions: for area of blood vessels (RECA1) in the dorsal column: 7 d infusion started immediately after injury
Experimental: Another potential contributor to axon loss is ischemia caused by blood vessel loss. To test this possibility, the same sections were analyzed for the extent of endothelial cell/blood vessel sparing by immunostaining for RECA1. […] Therefore, epicenter RECA1 was measured in additional 7 d postinjury groups, excluding those infused at the epicenter and those with an epicenter transection (SEP), which damaged the tissue. The bpV(phen) treatment (started immediately after the injury) increased the area of blood vessels in the dorsal column in those rats infused with 30 and 100 μM bpV(phen) (FIG. 8E). […] However, there was no correlation between RECA1- and EC-stained dorsal column epicenter white matter (p=0.98).
Anterogradely labeled sensory fibers and terminals were visualized in every third section through both gracile nuclei by DAB-based immunostaining for CTB as described previously (Baker et al. (2007) Exp Neurol 205:82-91). The lumbar sections were stained to ensure that the CTB injections were successful as evidenced by traced afferents and motor neurons. […] The epicenter of maximal injury was determined by the rostrocaudal level with the least amount of spared white matter per transverse section. […]
Quantitative measurements and statistics. The extent of sensory innervation of the gracile nucleus was determined by measuring the CTB-labeled terminal fiber area in every third section as described previously (Baker et al. (2007) Exp Neurol 205:82-91). In short, images of every third section through the right and left gracile nuclei were analyzed using the density slice feature of the Scion Image software. […] Images of EC-stained sections were captured, and the positive areas were measured with Scion Image. […] The number of spared myelinated axons at C3 was counted in semithin sections using a 63× oil objective in 15.7×15.7 μm grids placed over the middle part of each fasciculus gracilis (see FIG. 4D-4F). […]

[1] = tested on: Madin-Darby canine kidney cells; conditions: H2O2-susceptible Madin-Darby canine kidney cells; cited from earlier work
[2] = tested on: T9 contusive spinal cord injury; test: T9 spinal cord contusion, intrathecal infusion: CTB tracing, white matter (EC) and C3 axon histology; type: in vivo, rat; conditions: for CTB-traced fiber area in the gracile nucleus: PBS 43+/−17
C6 cells = conditions: cited from earlier work
[3] = tested on: T9 contusive spinal cord injury; test: Sensory-evoked potentials (SEP) after 0.4 mm T9 contusion; type: in vivo, rat; conditions: 0.4 mm contusion
cdc25B PTP = conditions: yeast enzyme; cited from earlier work
[4] = Observation of overall health status, general behavior and grooming; type: in vivo, rat; conditions: any of the bpV(phen)- and PBS-treated groups
Experimental: Whether bpV(phen) might have detrimental side effects, such as inducing pain at the level of the injury, was tested. Severe spinal cord injury can induce hypersensitivity and mechanical allodynia (a painful response to a nonpainful tactile skin stimulus) at the level of injury. […] Differences between any of the bpV(phen)- and PBS-treated groups in the overall health status, general behavior, and grooming of the rats were not observed.

Ser/Thr phosphatases = conditions: cited from earlier work
[5] = 100 μM, 7 d L5/6 infusion started immediately after 0.3 mm contusion

SMILES: O.O.O.OO.OO.[K+].[OH-].[V].c1cnc2c(c1)ccc1cccnc12 [bpV(phen), potassium bisperoxo(1,10-phenanthroline)oxovanadate (V)]
- area of blood vessels (RECA1) in the dorsal column (RECA1; 30 μM): increased
- area of blood vessels (RECA1) in the dorsal column (RECA1; 100 μM): increased
- blood vessels (RECA1) in the dorsal column at the epicenter (RECA1; 7 d infusion started 4 h after injury, area not significantly different from sham): sparing
- cell death [1]: does not cause death
- CTB-traced fiber area in the gracile nucleus ([2]; 30 μM, 7 d L5/6 infusion started immediately after 0.3 mm contusion): 60+/−5%
- CTB-labeled terminal fiber area in the gracile nucleus ([2]; 30 μM, 7 d intrathecal infusion at T9 started immediately after 0.3 mm contusion, PBS 17+/−7%): 47+/−6 % of sham
- area of spared white matter in the dorsal column at injury epicenter ([2]; 30 μM, 7 d intrathecal infusion at T9 started immediately after 0.3 mm contusion, PBS 28+/−6%): 50+/−8 % of sham
- spared dorsal column white matter at the epicenter ([2]; 100 μM, 7 d L5/6 infusion started 4 h after 0.3 mm contusion, PBS 37+/−6%): 78+/−7%
- gracile nucleus innervation (CTB) ([2]; 100 μM, 7 d L5/6 infusion started 4 h after 0.3 mm contusion, PBS 66+/−11%): 100+/−7%
- total white matter ([2]; 100 μM, 7 d L5/6 infusion started 4 h after 0.3 mm contusion, PBS 70+/−5%): 103+/−4%
- area of spared dorsal column white matter at the injury epicenter [2, 5]: 58+/−12%
- CTB-traced fiber area in the gracile nucleus [2, 5]: 93+/−11%
- total white matter at the epicenter ([2]; 100 μM, 7 d L5/6 infusion started immediately after 0.3 mm contusion, PBS 68+/−6%): 90+/−12%
- CTB-labeled innervation of the gracile nucleus ([2]; 100 μM, 28 d L5/6 infusion started 4 h after contusion, 42 d after injury, 14 d after end of infusion, PBS 68+/−11%): 106+/−9 % of sham
- area of spared white matter in the dorsal column at the T9 injury epicenter ([2]; 100 μM, 28 d L5/6 infusion started 4 h after contusion, 42 d after injury, PBS 48+/−8%): 79+/−7% and 80%
- number of myelinated axons in fasciculus gracilis at C3 ([2]; 100 μM, 28 d L5/6 infusion started 4 h after contusion, 42 d after injury, PBS 63+/−6%): 102+/−5%
- CTB-traced fiber area in the gracile nucleus ([2]; 300 μM, 7 d L5/6 infusion started immediately after 0.3 mm contusion): 80+/−14%
- oxidative damage to DNA (C6 cells): does not cause oxidative damage to DNA
- SEP amplitude, group average ([3]; 100 μM 7 d lumbar infusion started immediately, one week after contusion, PBS 6+/−6, sham 16): 21+/−7 μV
- rats with an SEP above background noise ([3]; 100 μM 7 d lumbar infusion, one week after contusion, PBS one of five): four of five
- SEP amplitude, group average ([3]; 100 μM 7 d lumbar infusion, one week after termination of infusion, PBS 2+/−2, sham 36): 30+/−18 μV
- rats with a detectable SEP ([3]; 100 μM 7 d lumbar infusion, one week after termination of infusion, PBS one rat): all rats
- inhibition of catalytic activity of purified cdc25B PTP (cdc25B PTP): can inhibit
- differences versus PBS groups in overall health status, general behavior and grooming [4]: not observed
- inhibition of Ser/Thr phosphatases (Ser/Thr phosphatases): not
